From ChEMBL document CHEMBL3045943, “Novel N-aryl(alkaryl)-2-[(3-R-2-oxo-2H-[1,2,4]triazino[2,3-c]quinazoline-6-yl)thio]acetamides: synthesis, cytotoxicity, anticancer activity, COMPARE analysis and docking” (2013)

Legend:
Type in all cases: functional
MDA-MB-231 = assay: Cytotoxicity against Homo sapiens (human) MDA-MB-231 cells assessed as cell growth at 10 uM after 48 hr by SRB assay relative to control; settings: MDA-MB-231, 48 h, read-out: Activity
KM12 = assay: Cytotoxicity against Homo sapiens (human) KM12 cells assessed as cell growth at 10 uM after 48 hr by SRB assay relative to control; settings: KM12, 48 h, read-out: Activity
BT-549 = assay: Cytotoxicity against Homo sapiens (human) BT549 cells assessed as cell growth at 10 uM after 48 hr by SRB assay relative to control; settings: BT-549, 48 h, read-out: Activity
A498 [1] = assay: Cytotoxicity against Homo sapiens (human) A498 cells assessed as cell growth at 10 uM after 48 hr by SRB assay relative to control; settings: A498, 48 h, read-out: Activity
[2] = system: Photobacterium leiognathi; assay: Growth inhibition of Photobacterium leiognathi Sh1 assessed as bio-luminescence at 0.1 mg/ml after 16 to 18 hr by chronic action test relative to control; parameters: scale not given: the % may be the effect or the level left
SK-MEL-5 [3] = assay: Cytotoxicity against Homo sapiens (human) SK-MEL-5 cells after 48 hr by SRB assay; settings: SK-MEL-5, 48 h
COLO 205 = assay: Cytotoxicity against Homo sapiens (human) COLO205 cells assessed as cell growth at 10 uM after 48 hr by SRB assay relative to control; settings: COLO 205, 48 h, read-out: Activity
SF-268 = assay: Cytotoxicity against Homo sapiens (human) SF268 cells assessed as cell growth at 10 uM after 48 hr by SRB assay relative to control; settings: SF-268, 48 h, read-out: Activity
HOP-62 = assay: Cytotoxicity against Homo sapiens (human) HOP62 cells after 48 hr by SRB assay; settings: HOP-62, 48 h
[4] = system: Photobacterium leiognathi; assay: Growth inhibition of Photobacterium leiognathi Sh1 assessed as bio-luminescence at 0.25 mg/ml after 10 min by acute action test relative to control; parameters: scale not given: the % may be the effect or the level left
UO-31 = assay: Cytotoxicity against Homo sapiens (human) UO31 cells assessed as cell growth at 10 uM after 48 hr by SRB assay relative to control; settings: UO-31, 48 h, read-out: Activity
[5] = system: Photobacterium leiognathi; assay: Growth inhibition of Photobacterium leiognathi Sh1 assessed as bio-luminescence at 0.025 mg/ml after 16 to 18 hr by chronic action test relative to control; parameters: scale not given: the % may be the effect or the level left
U-251 = assay: Cytotoxicity against Homo sapiens (human) U251 cells assessed as cell growth at 10 uM after 48 hr by SRB assay relative to control; settings: U-251, 48 h, read-out: Activity
SF-539 = assay: Cytotoxicity against Homo sapiens (human) SF539 cells assessed as cell growth at 10 uM after 48 hr by SRB assay relative to control; settings: SF-539, 48 h, read-out: Activity
HT-29 = assay: Cytotoxicity against Homo sapiens (human) HT-29 cells assessed as cell growth at 10 uM after 48 hr by SRB assay relative to control; settings: HT-29, 48 h, read-out: Activity
A498 [6] = assay: Cytotoxicity against Homo sapiens (human) A498 cells after 48 hr by SRB assay; settings: A498, 48 h
NCI-H522 = assay: Cytotoxicity against Homo sapiens (human) NCI-H522 cells after 48 hr by SRB assay; settings: NCI-H522, 48 h
SW-620 = assay: Cytotoxicity against Homo sapiens (human) SW620 cells assessed as cell growth at 10 uM after 48 hr by SRB assay relative to control; settings: SW-620, 48 h, read-out: Activity
ACHN = assay: Cytotoxicity against Homo sapiens (human) ACHN cells assessed as cell growth at 10 uM after 48 hr by SRB assay relative to control; settings: read-out: Activity
SNB-75 = assay: Cytotoxicity against Homo sapiens (human) SNB75 cells assessed as cell growth at 10 uM after 48 hr by SRB assay relative to control; settings: SNB-75, 48 h, read-out: Activity
[7] = system: Photobacterium leiognathi; assay: Growth inhibition of Photobacterium leiognathi Sh1 assessed as bio-luminescence at 0.025 mg/ml after 10 min by acute action test relative to control; parameters: scale not given: the % may be the effect or the level left
CAKI-1 = assay: Cytotoxicity against Homo sapiens (human) Caki1 cells assessed as cell growth at 10 uM after 48 hr by SRB assay relative to control; settings: CAKI-1, 48 h, read-out: Activity
NCI-H460 [8] = assay: Cytotoxicity against Homo sapiens (human) NCI-H460 cells assessed as cell growth at 10 uM after 48 hr by SRB assay relative to control; settings: NCI-H460, 48 h, read-out: Activity
[9] = system: Photobacterium leiognathi; assay: Growth inhibition of Photobacterium leiognathi Sh1 assessed as bio-luminescence at 0.1 mg/ml after 10 min by acute action test relative to control; parameters: scale not given: the % may be the effect or the level left
SK-MEL-5 [10] = assay: Cytotoxicity against Homo sapiens (human) SK-MEL-5 cells assessed as cell growth at 10 uM after 48 hr by SRB assay relative to control; settings: SK-MEL-5, 48 h, read-out: Activity
[11] = system: Photobacterium leiognathi; assay: Growth inhibition of Photobacterium leiognathi Sh1 assessed as bio-luminescence at 0.25 mg/ml after 16 to 18 hr by chronic action test relative to control; parameters: scale not given: the % may be the effect or the level left
NCI-H460 [12] = assay: Cytotoxicity against Homo sapiens (human) NCI-H460 cells after 48 hr by SRB assay; settings: NCI-H460, 48 h
HCT-116 = assay: Cytotoxicity against Homo sapiens (human) HCT116 cells assessed as cell growth at 10 uM after 48 hr by SRB assay relative to control; settings: HCT-116, 48 h, read-out: Activity
[13] = read-out: pLC50 (the source's name) (converted)

Which growth at 10 µM (MDA-MB-231) does the source give for `O=C(CSc1nc2ccccc2c2nc(=O)c(-c3ccccc3)nn12)NCc1ccc(F)cc1` here?
The growth at 10 µM was 15.7%.

What about the growth at 10 µM (KM12) of the same compound?
The growth at 10 µM was 9.97%.

And the growth at 10 µM (BT-549)?
Its growth at 10 µM is 45.9%.

And the growth at 10 µM (A498 [1])?
Its growth at 10 µM is 24.8%.

What about the Activity [2] of the same compound?
The Activity was 76.9%.

And the GI50 (SK-MEL-5 [3])?
Its GI50 is 3.02 µM.

What about the LC50 (SK-MEL-5 [3]) of the same compound?
Its LC50 is > 100 µM.

And the TGI (SK-MEL-5 [3]; read-out: pTGI)?
Its TGI is > 100 µM.

What about the growth at 10 µM (COLO 205) of the same compound?
The growth at 10 µM was 30.8%.

And the growth at 10 µM (SF-268)?
Its growth at 10 µM is 51.2%.

And the GI50 (HOP-62)?
Its GI50 is 1.74 µM.

What about the LC50 (HOP-62) of the same compound?
The LC50 was > 100 µM.

And the TGI (HOP-62; read-out: pTGI (converted))?
Its TGI is 6.92 µM.

What about the Activity [4] of the same compound?
Its Activity is 91.7%.

And the growth at 10 µM (UO-31)?
The growth at 10 µM was 12.7%.

What about the Activity [5] of the same compound?
The Activity was 90.9%.

What about the growth at 10 µM (U-251) of the same compound?
The growth at 10 µM was 19.9%.

And the growth at 10 µM (SF-539)?
The growth at 10 µM was 30.8%.

And the growth at 10 µM (HT-29)?
The growth at 10 µM was 30.9%.

And the GI50 (A498 [6])?
Its GI50 is 1.12 µM.

And the LC50 (A498 [6])?
The LC50 was > 100 µM.

And the TGI (A498 [6]; read-out: pTGI (converted))?
The TGI was 34.7 µM.

And the GI50 (NCI-H522)?
Its GI50 is 2.51 µM.

What about the CC50 (NCI-H522; [13]) of the same compound?
Its CC50 is > 100 µM.

And the TGI (NCI-H522; read-out: pTGI (converted))?
The TGI was 31.6 µM.

And the growth at 10 µM (SW-620)?
Its growth at 10 µM is 45.7%.

What about the growth at 10 µM (ACHN) of the same compound?
The growth at 10 µM was 43.7%.

And the growth at 10 µM (SNB-75)?
The growth at 10 µM was 44.3%.

And the Activity [7]?
The Activity was 77.8%.

And the growth at 10 µM (CAKI-1)?
The growth at 10 µM was -5.36%.

What about the growth at 10 µM (NCI-H460 [8]) of the same compound?
The growth at 10 µM was -25.4%.

And the Activity [9]?
The Activity was 78.8%.

And the growth at 10 µM (SK-MEL-5 [10])?
Its growth at 10 µM is 17.9%.

What about the Activity [11] of the same compound?
The Activity was 166.7%.

What about the GI50 (NCI-H460 [12]) of the same compound?
The GI50 was 2.57 µM.

What about the CC50 (NCI-H460 [12]; [13]) of the same compound?
The CC50 was > 100 µM.

And the TGI (NCI-H460 [12]; read-out: pTGI)?
The TGI was > 100 µM.

What about the growth at 10 µM (HCT-116) of the same compound?
The growth at 10 µM was 38.9%.
